Measurements: patent US20080131310A1, “Methods for determining effectiveness of waste water tank deodorizers and synthetic waste compositions for use in said methods” (Fuller Brush Company, Inc., priority 2006, published 2008)
Marks after values point to notes of the source that are not given here.

Tested on: Escherichia coli strain K12 (ATCC 25253)
Assay: Inhibitive evaluation: hydrogen sulfide generation in synthetic waste water media inoculated with E. coli
Type: cell-based
Details: for H2S in ppm vs. contact times, 24 Hours: 24 hours contact time; for H2S in ppm vs. contact times, 48 Hours: 48 hours contact time; for H2S in ppm vs. contact times, 72 Hours: 72 hours contact time
Protocol: An experiment was conducted to evaluate the effectiveness of recreational vehicle (Black) waste water tank deodorizer in preventing […] degradation processes that result in unpleasant odors. The effectiveness of the tank deodorizer was evaluated through the inhibition of growth using an E. Coli within a synthetic waste water media. This comparison of the respective products inhibition was over selected time periods from 5 to 7 days.
500 grams total of synthetic soil media was prepared having the following ingredients:
RV biodegradable toilet paper (small pieces) . . . 5.0 g • With the exception of the oatmeal and toilet paper, the above ingredients were mixed together and heated to 55° C. with constant mixing for 15 to 20 minutes. The oatmeal and toilet paper were then added and thoroughly mixed in. Mixture is allowed to cool to room temperature, then transferred to the waste water tank/digester test vessel.
Escherichia coli strain K12 (ATCC 25253) was employed.
1. To build up the count of microbes, using a 48-hour Nutrient Broth culture incubated at 37° C. of the E. Coli or other selected organism, the culture must be on at least the fourth consecutive 24-hour transfer before using. Have one tube of the 48-hour culture available for each of the test vessels.
2. Before inoculating the surrogate black waste water tank test vessel containing the synthetic soil media, the number of organisms being utilized was verified to achieve a range no less than a count of log^8 per milliliter. Serial dilutions of the E. coli culture were prepared as follows:
a.) Tube • #1. 1.0 ml organism culture+9.0 ml Nutrient Broth=1/10 • #2. 1.0 ml tube #1 dilution+9.0 ml Nutrient Broth=1/10^−2 • #3. 1.0 ml tube #2 dilution+9.0 ml Nutrient Broth=1/10^−3 • #4. 1.0 ml tube #3 dilution+9.0 ml Nutrient Broth=1/10^−4 • #5. 1.0 ml tube #4 dilution+9.0 ml Nutrient Broth=1/10^−5 • #6. 1.0 ml tube #5 dilution+9.0 ml Nutrient Broth=1/10^−6 • #7. 1.0 ml tube #6 dilution+9.0 ml Nutrient Broth=1/10^−7 • #8. 1.0 ml tube #7 dilution+9.0 ml Nutrient Broth=1/10^−8 • *Note: each dilution was thoroughly mixed before transferring to the next tube. b.) Each dilution was plated by the pour plate method. 1.0 ml of dilution was plated with 10.0 ml TGY pour plate agar. Plates were incubated at 37° C. for 48 hrs before reading for enumeration.
3. Specified amounts of test subject deodorizer from the chart below were added to the test vessel containing the 500 grams of the synthetic soil media and mix thoroughly to assure uniform distribution.
4. 5.0 ml of the E. coli culture from step #1 were added to the test vessel and thoroughly mixed to assure uniform distribution. This brought the organism count to a range to greater than 1.0×10^4 cfu/ml in the 500 g of synthetic soil media.
5. Caps were placed on the test vessels and the vessels were stored at a temperature of 80° F. during the 5 day or more evaluation period. Note: Tests may be performed at various temperatures at the discretion of the investigator. For example, 100° F. incubation may be used to reflect very high summer temperature test environments.
6. At 24 hrs contact time, handling was in such a manner as to minimize movement of the container and sewage inside. The cap was quickly removed from the test vessel and the holding cradle containing the H2S monitor was placed over the mouth of the test vessel for 4 minutes. During the 4 minute testing period the container was maintained as still as possible. • *Note: monitor must be zeroed before each reading taken.
7. After 4 minute of testing was completed, the monitor and cradle were removed from the mouth of the vessel and the cap replaced. Peak gas readings in ppm of H2S were recorded. Steps 6 & 7 were repeated for each test vessel in set.
8. Steps (6-7) were repeated for each of the remaining contact times of 48 hrs, 72 hrs, 96 hrs, 120 hrs. It should be noted that other times could be adopted for standardization of the protocol and that these times are simply preferred. […]

[1] = 0.78 ml/500 g synthetic soil media (8 oz per 40 gal tank), 80° F., peak head space reading, >5 ppm unacceptable

SMILES	H2S in ppm vs. contact times, 24 Hours [1]	H2S in ppm vs. contact times, 48 Hours [1]	H2S in ppm vs. contact times, 72 Hours [1]	H2S in ppm vs. contact times, 96 Hours (96 hours contact time, 0.78 ml/500 g synthetic soil media (8 oz per 40 gal tank), 80° F., peak head space reading, >5 ppm unacceptable)	H2S in ppm vs. contact times, 120 Hours (120 hours contact time, 0.78 ml/500 g synthetic soil media (8 oz per 40 gal tank), 80° F., peak head space reading, >5 ppm unacceptable)	Performance in H2S inhibition compared with the Aqua Kem control (over 120 hours, 0.78 ml/500 g synthetic soil media)
O=[N+]([O-])C(Br)(CO)CO [Bronopol, 2-bromo-2-nitropropane-1,3-diol]	0 ppm	0 ppm	0 ppm	0 ppm	0 ppm	The * indicates when each active had reached the unacceptable level of odor value. The two best performing actives that were equal to or near the performance of the Aqua Kem control were the Bronopol and Neolone M-10.
C1N2CN3CN1CN(C2)C3 [Hexamethylene-Tetramine]	2 ppm	2 ppm	48* ppm	–	–	–
